Source: US10100052B2, “Compounds for the treatment of hepatitis B virus infection” (Gilead Sciences, Inc., priority 2016, dated 2018)

Tests used:
HBsAg = test: PHH assay for inhibition of HBsAg; type: cell-based, genotype D (AD38-derived) HBV in primary human hepatocytes; details: Hepatitis B virus, 288 h, read-out: HBsAg EC50
Method: Primary human hepatocytes (PHH) (Bioreclamation IVT) were plated on collagen-coated flasks using Plating Media (Life Technologies) containing William's Medium E supplemented with 1% penicillin/streptomycin, 4 μg/mL human recombinant insulin, 2 mM GlutaMAX, 15 mM HEPES, 1 μM dexamethasone, 5% fetal bovine serum, and 0.2% Torpedo Antibiotic Mix (Bioreclamation IVT). After a 4-hour incubation at 37° C., cells were switched to Maintenance Media (Life Technologies) containing William's Medium E supplemented with 0.5% penicillin/streptomycin, 6.25 µg/mL human recombinant insulin, 6.25 μg/mL human transferrin, 6.25 ng/mL selenous acid, 1.25 mg/mL bovine serum albumin, 5.35 μg/mL linoleic acid, 2 mM GlutaMAX, 15 mM HEPES, 0.1 μM dexamethasone, 2% fetal bovine serum, 2% DMSO, and 0.2% Torpedo Antibiotic Mix (Bioreclamation IVT). On the next day, PHH were infected with 500 genome equivalent per cell of genotype D (AD38-derived) HBV in Maintenance Media supplemented with 4% PEG 8000 (Promega). After 24 hour incubation, cells were washed three times with William's Medium E and fed with fresh Maintenance Media. At 3 days after infection, infected PHH cells were seeded on 96-well plates pre-coated with collagen at a density of 65000 cells per well containing serially diluted solutions of certain compounds disclosed herein or DMSO (1% final concentration) in a final volume of 125 μl of Maintenance Media (Life Technologies) containing William's Medium E supplemented with 0.5% penicillin/streptomycin, 6.25 μg/mL human recombinant insulin, 6.25 μg/mL human transferrin, 6.25 ng/mL selenous acid, 1.25 mg/mL bovine serum albumin, 5.35 μg/mL linoleic acid, 2 mM GlutaMAX, 15 mM HEPES, 0.1 μM dexamethasone, 5% fetal bovine serum, 1 mM 1-amininobenzotriaole, and 0.2% Torpedo Antibiotic Mix (Bioreclamation IVT). Media with compounds was replenished every 2-3 days. After an incubation time of 12 days, secreted HBsAg in the supernatant were measured using a multiplex chemiluminescent (Mesoscale discovery, MSD) assay using capture and detection antibody pairs specific for HBsAg. Comparative Example 1 and Comparative Example 2 have the following structures and were prepared according to International Publication No. WO 2015/113990.

MT-4 cytotoxicity assay = type: cell-based; details: human, five days incubation, Cell Titer Glo
Method: The MT-4 cell line (HTLV-1 transformed, human T lymphoblastoid cells) was obtained from the NIH AIDS Reagent program (Bethesda, Md.). MT-4 cells were maintained in RPMI-1640 supplemented with 10% fetal bovine serum (FBS, Hyclone, Logan, Utah). All cell culture media were also supplemented with 100 Units/mL penicillin, 100 μg/mL streptomycin (Gibco). For the MT-4 cytotoxicity assay, 0.4 μL of serially diluted solutions of certain compounds disclosed herein were added to 40 μL of cell maintenance media in 384-well black, solid bottom plate using a Biomek FX workstation (Beckman Coulter). Two thousand cells in 35 μL were added to each well using a Biotek uFlow Workstation (Biotek). Each assay plate contained 10 μM puromycin (final concentration) and 0.5% DMSO in RPMI-1640 as positive and negative controls, respectively. Assay plates were incubated for five days at 37° C. in an incubator set at 5% CO2 and 90% humidity. After five days, 22 μL of Cell Titer Glo reagent (Promega) was added to the assay plates with a Biotek uFlow Workstation. Plates were subsequently placed on a Perkin Elmer Envision Plate Reader for five minutes before the luminescence signal was read. CC50 values were calculated by non-linear regression using Pipeline Pilot software by applying a four parameter fit equation (Accelrys, San Diego, Calif.) and are reported in the following Table 2.

Compound	EC50 (HBsAg) [nM]	CC50 at 5 days (MT-4 cytotoxicity assay; MT-4 cells) [nM]	CC50 at 5 days (MT-4 cytotoxicity assay) [nM]
COCCCOc1cc2c(cc1OC)-c1cc(=O)c(C(=O)O)cn1N(C(C)(C)C)C2 [Example 10, 6-(tert-butyl)-10-methoxy-9-(3-methoxypropoxy)-2-oxo-6,7-dihydro-2H-pyrido[2,1-a]phthalazine-3-carboxylic acid]	1.6	> 10000	–
COCCCOc1cc2c(cc1OC)-c1cc(=O)c(C(=O)O)cn1N(C(C)(C)C(F)(F)F)C2 [Example 15, 10-methoxy-9-(3-methoxypropoxy)-2-oxo-6-(1,1,1-trifluoro-2-methylpropan-2-yl)-6,7-dihydro-2H-pyrido[2,1-a]phthalazine-3-carboxylic acid]	25.3	> 10000	–
COCCCOc1cc2c(cc1Cl)-c1cc(=O)c(C(=O)O)cn1N(C1(C)CCC1)C2 [Example 7, 10-chloro-9-(3-methoxypropoxy)-6-(1-methylcyclobutyl)-2-oxo-6,7-dihydro-2H-pyrido[2,1-a]phthalazine-3-carboxylic acid]	6.8	> 10000	–
COCCCOc1cc2c(cc1Cl)-c1cc(=O)c(C(=O)O)cn1N(C13CC(C1)C3)C2 [Example 5, 6-(bicyclo[1.1.1]pentan-1-yl)-10-chloro-9-(3-methoxypropoxy)-2-oxo-6,7-dihydro-2H-pyrido[2,1-a]phthalazine-3-carboxylic acid]	4	> 10000	–
CCC(C)(C)N1Cc2cc(OCCCOC)c(Cl)cc2-c2cc(=O)c(C(=O)O)cn21 [Example 17, 10-chloro-9-(3-methoxypropoxy)-2-oxo-6-(tert-pentyl)-6,7-dihydro-2H-pyrido[2,1-a]phthalazine-3-carboxylic acid]	29.5	> 10000	–
COCCCOc1cc2c(cc1Cl)-c1cc(=O)c(C(=O)O)cn1N(CC(C)(C)C)C2 [Example 18, 10-chloro-9-(3-methoxypropoxy)-6-neopentyl-2-oxo-6,7-dihydro-2H-pyrido[2,1-a]phthalazine-3-carboxylic acid]	168	> 10000	–
COCCCOc1cc2c(cc1Cl)-c1cc(=O)c(C(=O)O)cn1N(C1(C)CC(F)(F)C1)C2 [Example 19, 10-chloro-6-(3,3-difluoro-1-methylcyclobutyl)-9-(3-methoxypropoxy)-2-oxo-6,7-dihydro-2H-pyrido[2,1-a]phthalazine-3-carboxylic acid]	99.2	> 10000	–
COCCCOc1cc2c(cc1Cl)-c1cc(=O)c(C(=O)O)cn1N(C1(C)CC1)C2 [Example 6, 10-chloro-9-(3-methoxypropoxy)-6-(1-methylcyclopropyl)-2-oxo-6,7-dihydro-2H-pyrido[2,1-a]phthalazine-3-carboxylic acid]	–	> 10000	–
CC(C)(C)N1Cc2cc(OCCOCC(F)(F)F)c(Cl)cc2-c2cc(=O)c(C(=O)O)cn21 [Example 13, 6-(tert-butyl)-10-chloro-2-oxo-9-(2-(2,2,2-trifluoroethoxy)ethoxy)-6,7-dihydro-2H-pyrido[2,1-a]phthalazine-3-carboxylic acid]	58.8	5200	–
COCCCOc1cc2c(cc1Cl)-c1cc(=O)c(C(=O)O)cn1N(C1(C(F)(F)F)CC1)C2 [Example 3, 10-chloro-9-(3-methoxypropoxy)-2-oxo-6-(1-(trifluoromethyl)cyclopropyl)-6,7-dihydro-2H-pyrido[2,1-a]phthalazine-3-carboxylic acid]	3.1	> 10000	–
COCCCOc1cc2c(cc1OC)-c1cc(=O)c(C(=O)O)cn1N(C(C)(C)COC)C2 [Example 11, 10-methoxy-6-(1-methoxy-2-methylpropan-2-yl)-9-(3-methoxypropoxy)-2-oxo-6,7-dihydro-2H-pyrido[2,1-a]phthalazine-3-carboxylic acid]	–	> 10000	–
COCCCOc1cc2c(cc1OC)-c1cc(=O)c(C(=O)O)cn1N(C1(C(F)(F)F)CC1)C2 [Example 14, 10-methoxy-9-(3-methoxypropoxy)-2-oxo-6-(1-(trifluoromethyl)cyclopropyl)-6,7-dihydro-2H-pyrido[2,1-a]phthalazine-3-carboxylic acid]	8.7	> 10000	–
COCCCOc1cc2c(cc1Cl)-c1cc(=O)c(C(=O)O)cn1N(C)C2 [Example 1, 10-chloro-9-(3-methoxypropoxy)-6-methyl-2-oxo-6,7-dihydro-2H-pyrido[2,1-a]phthalazine-3-carboxylic acid]	363	–	8900
COCCCOc1cc2c(cc1Cl)-c1cc(=O)c(C(=O)O)cn1N(C(C)(C)C(F)(F)F)C2 [Example 9, 10-chloro-9-(3-methoxypropoxy)-2-oxo-6-(1,1,1-trifluoro-2-methylpropan-2-yl)-6,7-dihydro-2H-pyrido[2,1-a]phthalazine-3-carboxylic acid]	–	> 10000	–
COCCCOc1cc2c(cc1Cl)-c1cc(=O)c(C(=O)O)cn1N(C(C)(C)COC)C2 [Example 8, 10-chloro-6-(1-methoxy-2-methylpropan-2-yl)-9-(3-methoxypropoxy)-2-oxo-6,7-dihydro-2H-pyrido[2,1-a]phthalazine-3-carboxylic acid]	11	> 10000	–
COCCCOc1cc2c(cc1Cl)-c1cc(=O)c(C(=O)O)cn1N(C(C)(C)CO)C2 [Example 16, 10-chloro-6-(1-hydroxy-2-methylpropan-2-yl)-9-(3-methoxypropoxy)-2-oxo-6,7-dihydro-2H-pyrido[2,1-a]phthalazine-3-carboxylic acid]	66.9	> 10000	–
COCCCOc1cc2c(cc1Cl)-c1cc(=O)c(C(=O)O)cn1N(C1(C(F)(F)F)CCC1)C2 [Example 4, 10-chloro-9-(3-methoxypropoxy)-2-oxo-6-(1-(trifluoromethyl)cyclobutyl)-6,7-dihydro-2H-pyrido[2,1-a]phthalazine-3-carboxylic acid]	11.2	8100	–
[2H]C([2H])([2H])OCCCOc1cc2c(cc1Cl)-c1cc(=O)c(C(=O)O)cn1N(C(C)(C)C)C2 [Example 12, 6-(tert-butyl)-10-chloro-9-(3-(methoxy-d3)propoxy)-2-oxo-6,7-dihydro-2H-pyrido[2,1-a]phthalazine-3-carboxylic acid]	7.7	9300	–
